Data as given in ChEMBL document CHEMBL1150831, “Immunosuppressive sesquiterpene alkaloids from Tripterygium wilfordii” (2001).
Calls of active or inactive are those of the source. The rule behind the calls is not given here.

Experiments:
Format in all cases: functional
PBMC [1] = assay: Immunosuppressive activity in human PBMC assessed as inhibition of LPS-stimulated IL8 production at 10 ug/mL after 18 to 24 hrs by ELISA
PBMC [2] = assay: Immunosuppressive activity in human PBMC assessed as inhibition of LPS-stimulated TNFalpha production at 10 ug/mL after 18 to 24 hrs by ELISA
PBMC [3] = assay: Immunosuppressive activity in human PBMC assessed as inhibition of LPS-stimulated IL2 production at 10 ug/mL after 18 to 24 hrs by ELISA
PBMC [4] = assay: Immunosuppressive activity in human PBMC assessed as inhibition of LPS-stimulated IL1-beta production at 10 ug/mL after 18 to 24 hrs by ELISA
PBMC [5] = assay: Immunosuppressive activity in human PBMC assessed as inhibition of LPS-stimulated IFN-gamma production at 10 ug/mL after 18 to 24 hrs by ELISA
PBMC [6] = assay: Immunosuppressive activity in human PBMC assessed as inhibition of LPS-stimulated IL4 production at 10 ug/mL after 18 to 24 hrs by ELISA

| Compound | inhibition at 10 µg/mL (PBMC [1]) [%] | inhibition at 10 µg/mL (PBMC [2]) [%] | inhibition at 10 µg/mL (PBMC [3]) [%] | inhibition at 10 µg/mL (PBMC [4]) [%] | inhibition at 10 µg/mL (PBMC [5]) [%] | inhibition at 10 µg/mL (PBMC [6]) [%] | inhibition (PBMC [1]) | inhibition (PBMC [2]) | inhibition (PBMC [3]) | inhibition (PBMC [4]) | inhibition (PBMC [5]) | inhibition (PBMC [6]) |
| --- | --- | --- | --- | --- | --- | --- | --- | --- | --- | --- | --- | --- |
| CC(=O)OC[C@]12[C@H](OC(C)=O)[C@H](OC(C)=O)[C@@H]3[C@@H](OC(C)=O)[C@@]14O[C@@]3(C)COC(=O)c1cccnc1CC[C@@](C)(OC(=O)c1ccccc1)C(=O)O[C@@H]([C@H](OC(C)=O)[C@@H]2OC(C)=O)[C@]4(C)O [WILFORNINE A] | 2 | 0 | 23 | -4 | 8 | 50 |  |  |  |  |  |  |
| CC(=O)OC[C@]12[C@H](OC(C)=O)[C@H](OC(C)=O)[C@@H]3[C@@H](OC(C)=O)[C@@]14O[C@@]3(C)COC(=O)c1cccnc1CC[C@@](C)(O)C(=O)O[C@@H]([C@H](OC(=O)c1ccccc1)[C@@H]2OC(C)=O)[C@]4(C)O | 8 | 2 | 35 | -6 | 4 | 50 |  |  |  |  |  |  |
| CC(=O)OC[C@]12[C@H](OC(C)=O)[C@H](OC(C)=O)[C@@H]3[C@@H](OC(C)=O)[C@@]14O[C@@]3(C)COC(=O)c1cccnc1CC[C@H](C)C(=O)O[C@@H]([C@H](OC(=O)c1ccco1)[C@@H]2OC(C)=O)[C@]4(C)O | 7 | 64 | 22 | 53 | 4 | -53 |  |  |  |  |  |  |
| CC(=O)OC[C@]12[C@H](OC(C)=O)[C@H](OC(C)=O)[C@@H]3[C@@H](OC(C)=O)[C@@]14O[C@@]3(C)COC(=O)c1cccnc1CC[C@H](C)C(=O)O[C@@H]([C@H](OC(=O)c1ccccc1)[C@@H]2OC(C)=O)[C@]4(C)O | 1 | 79 | 67 | 64 | 41 | 16 |  |  |  |  |  |  |
| CC(=O)OC[C@]12[C@H](OC(C)=O)[C@H](OC(C)=O)[C@@H]3[C@@H](OC(=O)c4ccccc4)[C@@]14O[C@@]3(C)COC(=O)c1cccnc1C(C)C(C)C(=O)O[C@@H]([C@H](OC(C)=O)[C@@H]2OC(C)=O)[C@]4(C)O (stereo partly specified) | 84 | 37 | 100 | 43 | 99 | 100 |  |  |  |  |  |  |
| CC(=O)OC[C@]12[C@H](OC(C)=O)[C@H](OC(=O)c3cccnc3)[C@@H]3[C@@H](OC(C)=O)[C@@]14O[C@@]3(C)COC(=O)c1cccnc1C(C)C(C)C(=O)O[C@@H]([C@H](OC(C)=O)[C@@H]2OC(C)=O)[C@]4(C)O (stereo partly specified) |  |  |  |  |  |  | inactive | inactive | inactive | inactive | inactive | inactive |
| CC(=O)OC[C@]12[C@H](OC(C)=O)[C@H](OC(C)=O)[C@@H]3[C@@H](O)[C@@]14O[C@@]3(C)COC(=O)c1cccnc1CC[C@@](C)(OC(=O)c1ccccc1)C(=O)O[C@@H]([C@H](OC(C)=O)[C@@H]2OC(C)=O)[C@]4(C)O [WILFORNINE B] | -23 | -6 | 22 | -3 | 7 | 100 |  |  |  |  |  |  |
| CC(=O)OC[C@]12[C@H](OC(C)=O)[C@H](OC(C)=O)[C@@H]3[C@@H](OC(=O)c4ccccc4)[C@@]14O[C@@]3(C)COC(=O)c1cccnc1CC[C@@](C)(OC(=O)c1ccccc1)C(=O)O[C@@H]([C@H](OC(C)=O)[C@@H]2OC(C)=O)[C@]4(C)O [WILFORNINE C] | -8 | -11 | 51 | -6 | 32 | 39 |  |  |  |  |  |  |
| CC(=O)OC[C@]12[C@H](OC(C)=O)[C@H](OC(C)=O)[C@@H]3[C@@H](OC(C)=O)[C@@]14O[C@@]3(C)COC(=O)c1cnccc1C(C)C(C)(O)C(=O)O[C@@H]([C@H](OC(=O)c1ccccc1)[C@@H]2OC(C)=O)[C@]4(C)O (stereo partly specified) [HYPOGLAUNINE C] | -26 | -28 | 57 | 2 | 20 | 51 |  |  |  |  |  |  |
| CC(=O)OC[C@]12[C@H](OC(C)=O)[C@H](OC(C)=O)[C@@H]3[C@@H](OC(=O)c4ccccc4)[C@@]14O[C@@]3(C)COC(=O)c1cnccc1C(C)C(C)(O)C(=O)O[C@@H]([C@H](OC(=O)c1ccccc1)[C@@H]2OC(C)=O)[C@]4(C)O (stereo partly specified) |  |  |  |  |  |  | inactive | inactive | inactive | inactive | inactive | inactive |
| CC(=O)OC[C@]12[C@H](OC(C)=O)[C@H](OC(C)=O)[C@@H]3[C@@H](OC(C)=O)[C@@]14O[C@@]3(C)COC(=O)c1cccnc1C(C)C(C)C(=O)O[C@@H]([C@H](OC(C)=O)[C@@H]2OC(=O)c1ccccc1)[C@]4(C)O (stereo partly specified) [MAYTEINE] | 2 | -9 | 55 | 2 | 36 | 14 |  |  |  |  |  |  |
| CC(=O)OC[C@]12[C@H](OC(C)=O)[C@H](OC(C)=O)[C@@H]3[C@@H](OC(=O)c4ccccc4)[C@@]14O[C@@]3(C)COC(=O)c1cccnc1C(C)C(C)C(=O)O[C@@H]([C@H](O)[C@@H]2OC(C)=O)[C@]4(C)O (stereo partly specified) |  |  |  |  |  |  | inactive | inactive | inactive | inactive | inactive | inactive |
| CC(=O)OC[C@]12[C@H](OC(C)=O)C(=O)[C@@H]3[C@@H](OC(C)=O)[C@@]14O[C@@]3(C)COC(=O)c1cnccc1CCC(C)(O)C(=O)O[C@@H]([C@H](OC(C)=O)[C@@H]2OC(C)=O)[C@]4(C)O (stereo partly specified) | 64 | 10 | 47 | 18 | 62 | 77 |  |  |  |  |  |  |
| CC(=O)OC[C@]12[C@H](OC(C)=O)[C@H](OC(C)=O)[C@@H]3[C@@H](OC(C)=O)[C@@]14O[C@@]3(C)COC(=O)c1cccnc1CC[C@@](C)(O)C(=O)O[C@@H]([C@H](OC(C)=O)[C@@H]2OC(C)=O)[C@]4(C)O |  |  |  |  |  |  | inactive | inactive | inactive | inactive | inactive | inactive |
| CC(=O)OC[C@]12[C@H](OC(C)=O)[C@H](OC(C)=O)[C@@H]3[C@@H](OC(C)=O)[C@@]14O[C@@]3(C)COC(=O)c1cccnc1C(C)C(C)C(=O)O[C@@H]([C@H](OC(C)=O)[C@@H]2OC(C)=O)[C@]4(C)O (stereo partly specified) [EUONYMINE] | 31 | 55 | 53 | 47 | 28 | 11 |  |  |  |  |  |  |
| CC(=O)OC[C@]12[C@H](OC(C)=O)[C@H](OC(C)=O)[C@@H]3[C@@H](OC(=O)c4ccccc4)[C@@]14O[C@@]3(C)COC(=O)c1cccnc1C(C)C(C)C(=O)O[C@@H]([C@H](OC(=O)c1cccnc1)[C@@H]2OC(C)=O)[C@]4(C)O (stereo partly specified) [HYPONINE D] | -15 | -9 | 45 | 7 | 13 | 66 |  |  |  |  |  |  |
| CC(=O)OC[C@]12[C@H](OC(C)=O)[C@H](OC(C)=O)[C@@H]3[C@@H](OC(C)=O)[C@@]14O[C@@]3(C)COC(=O)c1cccnc1CC[C@H](C)C(=O)O[C@@H]([C@H](OC(C)=O)[C@@H]2OC(C)=O)[C@]4(C)O [WILFORMINE] | 60 | 20 | 50 | 14 | 71 | 77 |  |  |  |  |  |  |
| CC(=O)OC[C@]12[C@H](OC(C)=O)[C@H](OC(C)=O)[C@@H]3[C@@H](OC(C)=O)[C@@]14O[C@@]3(C)COC(=O)c1cccnc1CC[C@@](C)(OC(=O)c1ccco1)C(=O)O[C@@H]([C@H](OC(C)=O)[C@@H]2OC(C)=O)[C@]4(C)O |  |  |  |  |  |  | inactive | inactive | inactive | inactive | inactive | inactive |
| CC(=O)OC[C@]12[C@H](OC(C)=O)[C@H](OC(C)=O)[C@@H]3[C@@H](OC(C)=O)[C@@]14O[C@@]3(C)COC(=O)c1cnccc1C(C)C(C)C(=O)O[C@@H]([C@H](OC(C)=O)[C@@H]2O)[C@]4(C)O (stereo partly specified) |  |  |  |  |  |  | inactive | inactive | inactive | inactive | inactive | inactive |
| CC(=O)OC[C@]12[C@H](OC(C)=O)C(=O)[C@@H]3[C@@H](OC(C)=O)[C@@]14O[C@@]3(C)COC(=O)c1cccnc1CC[C@@](C)(O)C(=O)O[C@@H]([C@H](OC(C)=O)[C@@H]2OC(C)=O)[C@]4(C)O |  |  |  |  |  |  | inactive | inactive | inactive | inactive | inactive | inactive |
| CC(=O)OC[C@]12[C@H](OC(C)=O)[C@H](OC(C)=O)[C@@H]3[C@@H](OC(=O)c4ccccc4)[C@@]14O[C@@]3(C)COC(=O)c1cccnc1C(C)C(C)C(=O)O[C@@H]([C@H](OC(C)=O)[C@@H]2OC(=O)c1ccccc1)[C@]4(C)O (stereo partly specified) | 97 | 76 | 100 | 49 | 92 | 100 |  |  |  |  |  |  |
